Test [1] deals with Vasopressin V2 receptor (Rattus norvegicus, UniProt Q00788). As to the kind of experiment: Compound was evaluated for its dissociation constant (Kd) to rat kidney Vasopressin V2 receptor.
The target in test [2] is Vasopressin V1 receptor (Rattus norvegicus, UniProt P48974+P30560). Kind of test: Compound was evaluated for its dissociation constant (Kd) to rat liver Vasopressin V1 receptor.
Test [3] addresses Oxytocin receptor (Cavia porcellus). As to the kind of experiment: Compound was evaluated for its dissociation constant (Kd) to guinea pig myometrial Oxytocin receptor.

Numbered stars: 1 amine (or outer) side, 2 acyl side, 3 side chain; on linkers, the order of the positions; unused ones are H or OH. Bridge positions count the residues as written; N and C are the ends. Square brackets hold non-standard residues; d marks the D form. Peptide text beside a SMILES is read from it. X1 = O=C([C@@]1(N[*:1])CCc2ccccc2C1)[*:2]; Atc(2S) = N[C@@]1(C(=O)O)CCc2ccccc2C1; Mpa = O=C(O)CCS; Sar = CNCC(=O)O Bounds are passed on as bounds.

Sequence of Vasopressin V2 receptor (Q00788 whole entry): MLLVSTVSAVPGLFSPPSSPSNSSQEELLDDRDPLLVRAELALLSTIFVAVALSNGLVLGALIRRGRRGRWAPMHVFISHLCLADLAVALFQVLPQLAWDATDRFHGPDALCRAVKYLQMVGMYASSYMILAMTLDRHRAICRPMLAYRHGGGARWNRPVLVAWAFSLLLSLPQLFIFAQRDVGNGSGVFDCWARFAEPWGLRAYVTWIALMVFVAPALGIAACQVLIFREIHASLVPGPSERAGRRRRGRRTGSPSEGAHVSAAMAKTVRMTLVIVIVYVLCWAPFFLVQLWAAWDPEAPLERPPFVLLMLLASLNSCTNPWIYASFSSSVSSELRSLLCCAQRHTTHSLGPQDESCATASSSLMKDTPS

`CC[C@H](C)[C@@H]1NC(=O)[C@@H](Cc2ccccc2)NC(=O)CCSSC[C@@H](C(=O)N(C)CC(=O)N[C@@H](CCCNC(=N)N)C(=O)NCC(N)=O)NC(=O)[C@H](CC(N)=O)NC(=O)[C@H](CCC(N)=O)NC1=O` showed a Kd in test [1] of 0.421 µM. Take `CC[C@H](C)[C@@H]1NC(=O)[C@@H]2c3[nH]c4ccccc4c3CCN2C(=O)CCSSC[C@H](C(=O)N(C)CC(=O)N[C@@H](CCCN=C(N)N)C(=O)NCC(N)=O)NC(=O)[C@H](CC(N)=O)NC(=O)[C@H](CCC(N)=O)NC1=O`: the Kd in test [1] is > 100 µM; in test [2], 0.0178 µM. Consider `CC[C@H](C)[C@@H]1NC(=O)[C@@H](Cc2c[nH]c3ccccc23)NC(=O)CC2(CCCCC2)SSC[C@@H](C(=O)N(C)CC(=O)N[C@@H](CCCNC(=N)N)C(=O)NCC(N)=O)NC(=O)[C@H](CC(N)=O)NC(=O)[C@H](CCC(N)=O)NC1=O`, for which the Kd in test [1] was 0.003 µM; in test [3], 0.006 µM. Turning to `CC[C@H](C)[C@@H]1NC(=O)[C@@H](Cc2c[nH]c3ccccc23)NC(=O)CCSSC[C@@H](C(=O)N(C)CC(=O)N[C@@H](CCCNC(=N)N)C(=O)NCC(N)=O)NC(=O)[C@H](CC(N)=O)NC(=O)[C@H](CCC(N)=O)NC1=O`, the Kd in test [1] is 4.96 µM; in test [2], 0.888 µM. For `CC[C@H](C)[C@@H]1NC(=O)[C@@]2(CCc3ccccc3C2)NC(=O)CCSSC[C@@H](C(=O)N(C)CC(=O)N[C@@H](CCCN=C(N)N)C(=O)NCC(N)=O)NC(=O)[C@H](CC(N)=O)NC(=O)[C@H](CCC(N)=O)NC1=O` ([Mpa][Atc(2S)]IQNC[Sar]RG-NH2; disulfide 1-6), the dissociation constant (Kd) is 2.29 µM in test [1] and 17.6 µM in test [2].

With `CC[C@H](C)[C@@H]1NC(=O)[C@]2(CCc3ccccc3C2)NC(=O)CCSSC[C@@H](C(=O)N(C)CC(=O)N[C@@H](CCCN=C(N)N)C(=O)NCC(N)=O)NC(=O)[C@H](CC(N)=O)NC(=O)[C@H](CCC(N)=O)NC1=O` ([Mpa][X1]IQNC[Sar]RG-NH2; disulfide 1-6), the Kd in test [1] came out at 5.34 µM; in test [2], 2.64 µM. In the same order, the values of `CC[C@H](C)[C@@H]1NC(=O)[C@@H]2c3[nH]c4ccccc4c3CCN2C(=O)CCSSC[C@H](C(=O)N(C)CC(=O)N[C@@H](CCCN=C(N)N)C(=O)NCC(N)=O)NC(=O)[C@H](CC(N)=O)NC(=O)[C@H](CCC(N)=O)NC1=O` (single isomer, unassigned) are > 100 µM and 0.0635 µM.
